Where two headings read alike, the source gives them in different places.
Experiments:
IFN-α = test: Cytokine induction in human cells (PBMC): IFN-α secreted into culture media, ELISA; format: cell-based; conditions: 30-0.014 μM, lowest concentration inducing over 20 pg/mL, median where several experiments, read-out: Minimum Effective Concentration IFN
Description: (§1) An in vitro human blood cell system is used to assess cytokine induction. Activity is based on the measurement of interferon (α) and tumor necrosis factor (α) (IFN-α, and TNF-α, respectively) secreted into culture media as described by Testerman et. al. in “Cytokine Induction by the Immunomodulators Imiquimod and S-27609”, Journal of Leukocyte Biology, 58, 365-372 (September, 1995).
(§2) Whole blood from healthy human donors is collected by venipuncture into vacutainer tubes or syringes containing EDTA. Peripheral blood mononuclear cells (PBMC) are separated from whole blood by density gradient centrifugation using HISTOPAQUE-1077 (Sigma, St. Louis, Mo.) or Ficoll-Paque Plus (Amersham Biosciences Piscataway, N.J.). Blood is diluted 1:1 with Dulbecco's Phosphate Buffered Saline (DPBS) or Hank's Balanced Salts Solution (HBSS). Alternately, whole blood is placed in Accuspin (Sigma) or LeucoSep (Greiner Bio-One, Inc., Longwood Fla.) centrifuge frit tubes containing density gradient medium. The PBMC layer is collected and washed twice with DPBS or HBSS and re-suspended at 4×10^6 cells/mL in RPMI complete. The PBMC suspension is added to 96 well flat bottom sterile tissue culture plates containing an equal volume of RPMI complete media containing test compound.
(§3) The compounds are solubilized in dimethyl sulfoxide (DMSO). The DMSO concentration should not exceed a final concentration of 1% for addition to the culture wells. The compounds are generally tested at concentrations ranging from 30-0.014 μM. Controls include cell samples with media only, cell samples with DMSO only (no compound), and cell samples with reference compound.
(§4) The solution of test compound is added at 60 μM to the first well containing RPMI complete and serial 3 fold dilutions are made in the wells. The PBMC suspension is then added to the wells in an equal volume, bringing the test compound concentrations to the desired range (usually 30-0.014 μM). The final concentration of PBMC suspension is 2×10^6 cells/mL. The plates are covered with sterile plastic lids, mixed gently and then incubated for 18 to 24 hours at 37° C. in a 5% carbon dioxide atmosphere.
(§5) Following incubation the plates are centrifuged for 10 minutes at 1000 rpm (approximately 200×g) at 4° C. The cell-free culture supernatant is removed and transferred to sterile polypropylene tubes. Samples are maintained at −30 to −70° C. until analysis. The samples are analyzed for IFN-α by ELISA and for TNF-α by IGEN/BioVeris Assay.
IFN-α concentration is determined with a human multi-subtype colorimetric sandwich ELISA (Catalog Number 41105) from PBL Biomedical Laboratories, Piscataway, N.J. Results are expressed in pg/mL.
Analysis of the data has two steps. First, the greater of the mean DMSO (DMSO control wells) or the experimental background (usually 20 pg/mL for IFN-α and 40 pg/mL for TNF-α) is subtracted from each reading. If any negative values result from background subtraction, the reading is reported as “*” and is noted as not reliably detectable. In subsequent calculations and statistics, “*” is treated as a zero. Second, all, background subtracted values are multiplied by a single adjustment ratio to decrease experiment to experiment variability. The adjustment ratio is the area of the reference compound in the new experiment divided by the expected area of the reference compound based on the past 61 experiments (unadjusted readings). […] The reference compound used is 2-[4-amino-2-ethoxymethyl-6,7,8,9-tetrahydro-α,α-dimethyl-1H-imidazo[4,5-c]quinolin-1-yl]ethanol hydrate (U.S. Pat. No. 5,352,784; Example 91) and the expected area is the sum of the median dose values from the past 61 experiments.
The minimum effective concentration is calculated based on the background-subtracted, reference-adjusted results for a given experiment and compound. […]

TNF-α = test: Cytokine induction in human cells (PBMC): TNF-α secreted into culture media, ORIGEN M-Series immunoassay; format: cell-based; conditions: 30-0.014 μM, lowest concentration inducing over 40 pg/mL, median where several experiments, read-out: Minimum Effective Concentration TNF
Description: as §1, §2, §3, §4, §5
The TNF-α concentration is determined by ORIGEN M-Series Immunoassay and read on an IGEN M-8 analyzer from BioVeris Corporation, formerly known as IGEN International, Gaithersburg, Md. The immunoassay uses a human TNF-α capture and detection antibody pair (Catalog Numbers AHC3419 and AHC3712) from Biosource International, Camarillo, Calif. Results are expressed in pg/mL.
Analysis of the data has two steps. First, the greater of the mean DMSO (DMSO control wells) or the experimental background (usually 20 pg/mL for IFN-α and 40 pg/mL for TNF-α) is subtracted from each reading. If any negative values result from background subtraction, the reading is reported as “*” and is noted as not reliably detectable. In subsequent calculations and statistics, “*” is treated as a zero. Second, all, background subtracted values are multiplied by a single adjustment ratio to decrease experiment to experiment variability. The adjustment ratio is the area of the reference compound in the new experiment divided by the expected area of the reference compound based on the past 61 experiments (unadjusted readings). […] The reference compound used is 2-[4-amino-2-ethoxymethyl-6,7,8,9-tetrahydro-α,α-dimethyl-1H-imidazo[4,5-c]quinolin-1-yl]ethanol hydrate (U.S. Pat. No. 5,352,784; Example 91) and the expected area is the sum of the median dose values from the past 61 experiments. […]

Q: With `CC(C)(O)Cn1c(CCO)nc2c(N)nc3cccnc3c21` [Example 7, 1-[4-Amino-2-(2-hydroxyethyl)-1H-imidazo[4,5-c][1,5]naphthyridin 1-yl]-2-methylpropan-2-ol] as the compound, how does the melting point read?
A: The melting point was 194 to 195 °C.

Q: What about the minimal effective concentration (IFN-α; Table 3, 18 to 24 hours) of the same compound?
A: The minimal effective concentration was 3.33 µM.

Q: What about the minimal effective concentration (IFN-α; Table 4, 18 to 24 hours) of the same compound?
A: The minimal effective concentration was 3.33 µM.

Q: And the minimal effective concentration (TNF-α; Table 3, 18 to 24 hours)?
A: Its minimal effective concentration is 30 µM.

Q: What about the minimal effective concentration (TNF-α; Table 4, 18 to 24 hours) of the same compound?
A: The minimal effective concentration was 30 µM.

Q: What does the source list for `CC(C)(F)Cn1c(CO)nc2c(N)nc3cccnc3c21` [Example 14, [4-Amino-1-(2-fluoro-2-methylpropyl)-1H-imidazo[4,5-c][1,5]naphthyridin-2-yl]methanol]?
A: melting point: 240 to 241 °C; minimal effective concentration (IFN-α; Table 4, 18 to 24 hours): 1.11 µM; minimal effective concentration (TNF-α; Table 4, 18 to 24 hours): 3.33 µM

Q: With `CC(C)(F)Cn1c(CCO)nc2c(N)nc3cccnc3c21` [Example 15, 2-[4-Amino-1-(2-fluoro-2-methylpropyl)-1H-imidazo[4,5-c][1,5]naphthyridin-2-yl]ethanol] as the compound, how does the melting point read?
A: Its melting point is 224 to 225 °C.

Q: What about the minimal effective concentration (IFN-α; Table 4, 18 to 24 hours) of the same compound?
A: The minimal effective concentration was 1.11 µM.

Q: And the minimal effective concentration (TNF-α; Table 4, 18 to 24 hours)?
A: Its minimal effective concentration is 10 µM.

Q: For `CC(C)Cn1c(CO)nc2c(N)nc3cccnc3c21` [Example 96, [4-Amino-1-(2-methylpropyl)-1H-imidazo[4,5-c][1,5]naphthyridin-2-yl]methanol], which melting point is on record?
A: The melting point was 226 to 228 °C.

Q: What about the minimal effective concentration (IFN-α; Table 4, 18 to 24 hours) of the same compound?
A: The minimal effective concentration was 1.11 µM.

Q: And the minimal effective concentration (TNF-α; Table 4, 18 to 24 hours)?
A: Its minimal effective concentration is 30 µM.

Source: patent US8343993B2, “Hydroxyalkyl substituted imidazonaphthyridines” (3M Innovative Properties Company, priority 2005, dated 2013)
